Assay results taken from patent US12083100B1, “Antiparasitic isoxazoline compounds, long-acting injectable formulations comprising them, methods and uses thereof” (BOEHRINGER INGELHEIM ANIMAL HEALTH USA INC., priority 2016, dated 2024).

Assays:
[1] = tested on: Haematobia irritans (horn fly); assay: Efficacy of long-acting injectable composition against Haematobia irritans (horn fly) on cattle; type: in vivo; conditions: naturally infested cattle, 10% (w/v) composition at 0.25 mL/50 kg body weight
Description: The efficacy of a long-acting injectable composition comprising the compound of formula (S)-Ie against horn fly on cattle was evaluated. Two groups of 15 cattle were selected for the study and randomly assigned to one of two groups. The cattle in Group 1 were untreated and the cattle in Group 2 were treated with a long-acting composition of the invention containing 10% (w/v) of the compound of formula (S)-Ie in a carrier comprising 8% (w/v) ethanol in PEG 400 (QS). The composition was administered to the cattle in Group 2 at a dose of 0.25 mL/50 kg body weight. Each animal was naturally infested with horn flies, and horn fly counts were performed on Days-2, 3, 7, 10, 13, 16, 20, 23, 27, 30, 34, 37, 43, 45 and 48. Tables 2A and 2B below provide the horn fly counts and the % reduction of the treated group relative to the control.

[2] = tested on: Rhipicephalus microplus ticks; assay: Efficacy of injectable formulation against Rhipicephalus (Boophilus) microplus ticks on cattle; type: in vivo; conditions: for Average % Efficacy (Tick Count): vs untreated control
Description: The efficacy of long-acting injectable compositions of the invention comprising the compounds of formula (Ie) and (S)-Ie, against Rhipicephalus microplus ticks on cattle was determined against an untreated control group. The efficacy of compositions comprising the compounds (Ie) and (S)-e were also compared with injectable compositions comprising afoxolaner (formula Ia, 4-[5-[3-chloro-5-(trifluoromethyl)phenyl]-4,5-dihydro-5-(trifluoromethyl)-3-isoxazolyl]-N-[2-oxo-2-[(2,2,2-trifluoroethyl)amino]ethyl]-1-naphthalanecarboxamide), and comparative compounds of formulae (If) and (S)-If shown below.
Each compound was formulated in an injectable composition at a concentration of 10% (w/v) in a carrier comprising 8% (w/v) ethanol and Q.S. with polyethylene glycol 400. The racemic compounds afoxolaner and (If) were dosed at 1.0 mg/kg body weight and the (S)-enantiomers ((S)-Ie and (S)-If) were dosed at 0.5 mg/kg body weight. Six healthy head of cattle were used in each study group. Cattle in Group 1 were untreated (control). Cattle in Groups 2, 3, 4, 5 and 6 were treated on Day 0 subcutaneously with injectable compositions comprising the compounds of formula Ie, (S)-If, (S)-Ie, afoxolaner (Ia) and (If), respectively. Several weeks before treatment, cattle were infested three times a week with approximately 2500 Rhipicephalus microplus larvae to establish ongoing infestations. Each animal was challenged by infestation with approximately 5000 R. microplus larvae on Days 7 and 21 and every 14 days thereafter. Ticks dropping from each animal in the previous 24 hours were collected daily and counted from Day 1 until the end of the study.

[3] = injectable composition, compared with afoxolaner, (If) or (S)-If

For `O=C(CNC(=O)c1ccc(C2=NO[C@@](c3cc(Cl)c(F)c(C(F)(F)F)c3)(C(F)(F)F)C2)c2ccccc12)NCC(F)(F)F` [(S)-Ie], the “% Reduction of horn fly counts of the treated group relative to the control” value ([1]; Day 3) was 89.5%, the “Arithmetic Mean of Horn Fly Counts” value ([1]; Day 3) was 26.7 and the “% Reduction of horn fly counts of the treated group relative to the control” value ([1]; Day 7) was 74.3%. For the same compound, the “Arithmetic Mean of Horn Fly Counts” value ([1]; Day 7) was 35.0, the “% Reduction of horn fly counts of the treated group relative to the control” value ([1]; Day 10) was 79.6% and the “Arithmetic Mean of Horn Fly Counts” value ([1]; Day 10) was 16.0. The “% Reduction of horn fly counts of the treated group relative to the control” value ([1]; Day 13) was 63.3%, the “Arithmetic Mean of Horn Fly Counts” value ([1]; Day 13) was 22.0 and the “% Reduction of horn fly counts of the treated group relative to the control” value ([1]; Day 16) was 57.3%. For the same compound, the “Arithmetic Mean of Horn Fly Counts” value ([1]; Day 16) was 44.7, the “% Reduction of horn fly counts of the treated group relative to the control” value ([1]; Day 20) was 56.6% and the “Arithmetic Mean of Horn Fly Counts” value ([1]; Day 20) was 36.0. For the same compound, the “% Reduction of horn fly counts of the treated group relative to the control” value ([1]; Day 23) was 42.5%, the “Arithmetic Mean of Horn Fly Counts” value ([1]; Day 23) was 30.7 and the “% Reduction of horn fly counts of the treated group relative to the control” value ([1]; Day 27) was 61.8%. For the same compound, the “Arithmetic Mean of Horn Fly Counts” value ([1]; Day 27) was 22.7, the “% Reduction of horn fly counts of the treated group relative to the control” value ([1]; Day 30) was 67.6% and the “Arithmetic Mean of Horn Fly Counts” value ([1]; Day 30) was 23.0. For the same compound, the “% Reduction of horn fly counts of the treated group relative to the control” value ([1]; Day 34) was 44.8%, the “Arithmetic Mean of Horn Fly Counts” value ([1]; Day 34) was 26.3 and the “% Reduction of horn fly counts of the treated group relative to the control” value ([1]; Day 37) was 61.8%. For the same compound, the “Arithmetic Mean of Horn Fly Counts” value ([1]; Day 37) was 28.0, the “% Reduction of horn fly counts of the treated group relative to the control” value ([1]; Day 43) was 39.5% and the “Arithmetic Mean of Horn Fly Counts” value ([1]; Day 43) was 26.0. The “% Reduction of horn fly counts of the treated group relative to the control” value ([1]; Day 45) was 35.5%, the “Arithmetic Mean of Horn Fly Counts” value ([1]; Day 45) was 43.0 and the “% Reduction of horn fly counts of the treated group relative to the control” value ([1]; Day 48) was 31.1%. The “Arithmetic Mean of Horn Fly Counts” value ([1]; Day 48) was 30.3, the “Average % Efficacy (Tick Count)” value ([2]; Day 5, 0.5 mg/kg subcutaneous on Day 0 ((S)-enantiomers)) was 66% and the “Average % Efficacy (Tick Count)” value ([2]; Day 10, 0.5 mg/kg subcutaneous on Day 0 ((S)-enantiomers)) was 93%. For the same compound, the “Average % Efficacy (Tick Count)” value ([2]; Day 20, 0.5 mg/kg subcutaneous on Day 0 ((S)-enantiomers)) was 100%, the “Average % Efficacy (Tick Count)” value ([2]; Day 30, 0.5 mg/kg subcutaneous on Day 0 ((S)-enantiomers)) was 100% and the “Average % Efficacy (Tick Count)” value ([2]; Day 40, 0.5 mg/kg subcutaneous on Day 0 ((S)-enantiomers)) was 100%. For the same compound, the “Average % Efficacy (Tick Count)” value ([2]; Day 49, 0.5 mg/kg subcutaneous on Day 0 ((S)-enantiomers)) was 100%, the “Average % Efficacy (Tick Count)” value ([2]; Day 55, 0.5 mg/kg subcutaneous on Day 0 ((S)-enantiomers)) was 100% and the “Average % Efficacy (Tick Count)” value ([2]; Day 60, 0.5 mg/kg subcutaneous on Day 0 ((S)-enantiomers)) was 100%. For the same compound, the “Average % Efficacy (Tick Count)” value ([2]; Day 65, 0.5 mg/kg subcutaneous on Day 0 ((S)-enantiomers)) was 100%, the “Average % Efficacy (Tick Count)” value ([2]; Day 70, 0.5 mg/kg subcutaneous on Day 0 ((S)-enantiomers)) was 100% and the “Average % Efficacy (Tick Count)” value ([2]; Day 75, 0.5 mg/kg subcutaneous on Day 0 ((S)-enantiomers)) was 100%. For the same compound, the “Average % Efficacy (Tick Count)” value ([2]; Day 80, 0.5 mg/kg subcutaneous on Day 0 ((S)-enantiomers)) was 100%, the “Average % Efficacy (Tick Count)” value ([2]; Day 85, 0.5 mg/kg subcutaneous on Day 0 ((S)-enantiomers)) was 90% and the “Average % Efficacy (Tick Count)” value ([2]; Day 88, 0.5 mg/kg subcutaneous on Day 0 ((S)-enantiomers)) was 88%. The “Average % Efficacy (Tick Count)” value ([2]; Day 95, 0.5 mg/kg subcutaneous on Day 0 ((S)-enantiomers)) was 92%, the “Average % Efficacy (Tick Count)” value ([2]; Day 100, 0.5 mg/kg subcutaneous on Day 0 ((S)-enantiomers)) was 88% and the “Average % Efficacy (Tick Count)” value ([2]; Day 105, 0.5 mg/kg subcutaneous on Day 0 ((S)-enantiomers)) was 76%. For the same compound, the “Average % Efficacy (Tick Count)” value ([2]; Day 110, 0.5 mg/kg subcutaneous on Day 0 ((S)-enantiomers)) was 65%, the “efficacy and duration of activity against Rhipicephalus microplus compared with other isoxazoline compounds” value [2, 3] was “surprising and unexpected efficacy” and the “speed of onset of efficacy against Rhipicephalus microplus compared with other isoxazoline compounds” value [2, 3] was “faster-acting”.
